Data set [1] in a line: physchem. The note with it: octanol/PBS buffer, pH 7.2.
Data set [2] is described as follows: in vitro. The note with it: human, hepatocytes.
The nature of data set [3]: physchem. The conditions noted are these: buffer, pH 2.
A short description of data set [4]: in vivo. The conditions noted are these: Sprague-Dawley, rat, po, 0.4 mg/kg.
The nature of data set [5]: in vitro. The conditions noted are these: Sprague-Dawley, rat, hepatocytes.
Data set [6] in a line: physchem. The note with it: buffer, pH 7.4.
The nature of data set [7]: in vivo. The note with it: Sprague-Dawley, rat, iv, 0.4 mg/kg.
The nature of data set [8]: in vivo. The note with it: Sprague-Dawley, rat, po, 2 mg/kg.
Data set [9] in a line: in vivo. The conditions noted are these: Sprague-Dawley, rat, plasma, po, 2 mg/kg.
Data set [10] in a line: Clearance in rat at 2 mg/kg, po. The data set is classed as ADME, organism-based. Set-up: dose 2 mg/kg, route oral. The note with it: in vivo.
The nature of data set [11]: in vivo. The note with it: rat, po, 2 mg/kg.
The nature of data set [12]: AUC in rat at 2 mg/kg, po. The note with it: plasma. The data set is classed as ADME, organism-based. Also noted: dose 2 mg/kg, route oral.
Data set [13] in a line: in vivo. The conditions noted are these: rat, po, 2 mg/kg. The source holds these as a separate data set.
The species entered for data set [14] is Rattus norvegicus. The conditions noted are these: in vivo, po, 2 mg/kg.

Converted amounts (≈) assume the structure as drawn.

Turning to `Cc1nc2cnc3[nH]ccc3c2n1C1CCN(CCC#N)CC1`, the logD at 1 h, 10000 µM in data set [1] came to 1.3. Also, the half-life at 1 µM in data set [2] is more than 8 h.

In data set [1], `Cc1nc2cnc3[nH]ccc3c2n1[C@H]1CC[C@H](NS(C)(=O)=O)CC1` registered a logD at 1 h, 10000 µM of 1.2. In addition, the half-life at 1 µM in [2] is more than 8 h.

`Cc1nc2cnc3[nH]ccc3c2n1[C@@H]1CCCC[C@H]1O` (relative stereo) came in with a logD at 1 h, 10000 µM in data set [1] of 1.6. In data set [2], this compound registered a half-life at 1 µM of more than 8 h.

The compound `Cc1nc2cnc3[nH]ccc3c2n1[C@H]1CCCNC1` displayed a logD at 1 h, 10000 µM in data set [1] of 0.6. The same compound yielded a half-life at 1 µM in data set [2] of more than 8 h.

As for `Cc1nc2cnc3[nH]ccc3c2n1[C@@H]1CCNC[C@@H]1F` (relative stereo), in data set [1], the pH-dependent lipophilicity (logD) at 1 h, 10000 µM was 0.7.

With `COC(=O)N[C@H]1CC[C@H](n2c(C)nc3cnc4[nH]ccc4c32)CC1`, the solubility (thermodynamic) at 24 h in data set [3] amounted to 2300 µM (≈ 753 µg/mL); in [6], 40 µM (≈ 13.1 µg/mL). This compound yielded a Cmax in data set [4] of 550 nM. In addition, the figures for the half-life at 1 µM in data set [5] and in [2] were 3.5 h and 3.9 h, respectively. In addition, the logD at 1 h, 10000 µM in data set [1] was found to be 2. Besides, the clearance in data set [7] was found to be 40 mL/min/kg. The compound further came in with a bioavailability in [8] of 54%. Also, the AUC in data set [9] is 1.4 µM·h.

Turning to `CC(=O)N[C@H]1CC[C@H](n2c(C)nc3cnc4[nH]ccc4c32)CC1`, the logD at 1 h, 10000 µM in data set [1] worked out at 1.1.

Compound `Cc1nc2cnc3[nH]ccc3c2n1[C@H]1CCCOC1` displayed a logD at 1 h, 10000 µM in [1] of 1.8. Also, in [2], the half-life at 1 µM was 6.3 h.

Consider `Cc1nc2cnc3[nH]ccc3c2n1[C@H]1CC[C@@H](O)CC1`, for which the logD at 1 h, 10000 µM in [1] amounted to 1.4. Also, in [2], the half-life at 1 µM is more than 8 h.

With `Cc1nc2cnc3[nH]ccc3c2n1C1CCNCC1`, the solubility (thermodynamic) at 24 h in data set [3] is more than 5000 µM; in data set [6] it was more than 1500 µM. In [4], the highest level (Cmax) was 60 nM. For the same compound, the half-life at 1 µM in [5] and in data set [2] was more than 8 h in each case. In data set [1], this compound showed a logD at 1 h, 10000 µM of 0.1. The same compound registered a clearance in data set [7] of 43 mL/min/kg. Further, the bioavailability in data set [8] is 4%. In data set [9], this compound displayed an AUC of 0.12 µM·h.

Turning to `Cc1nc2cnc3[nH]ccc3c2n1[C@H]1CC[C@H](O)CC1`, the logD at 1 h, 10000 µM in data set [1] worked out at 1.4. In [2], this compound showed a half-life at 1 µM of more than 8 h.

The compound `C[C@@H]1CCN(C(=O)CC#N)C[C@@H]1N(C)c1ncnc2[nH]ccc12` [TOFACITINIB] yielded a CL/F in data set [10] of 43 mL/min/kg. Also, the bioavailability in [11] is 87%. In data set [12], this compound showed an AUC of 2.1 µM·h. Moreover, in data set [13], the Cmax amounted to 1700 nM.

As for `Cc1nc2cnc3[nH]ccc3c2n1[C@H]1CC[C@H](NCCC#N)CC1`, the results for the solubility (thermodynamic) at 24 h in data set [3] and in data set [6] were more than 5000 µM and more than 1500 µM, respectively. Further, in data set [4], the Cmax is 150 nM. Also, the half-life at 1 µM in [5] and in data set [2] was more than 8 h each time. Further, the logD at 1 h, 10000 µM in data set [1] was found to be 0.9. Also, in [7], the clearance was 80 mL/min/kg. In [8], the bioavailability was found to be 13%. In addition, the exposure (AUC) in data set [9] was 0.18 µM·h.

Take `Cc1nc2cnc3[nH]ccc3c2n1[C@@H]1CCNC[C@H]1F` (relative stereo): in data set [4], the highest level (Cmax) was 4500 nM. Besides, the F in [14] is reported as 172%. In addition, the figures for the half-life at 1 µM in data set [5] and in data set [2] were 1.6 h and 1.8 h, respectively. This compound also came in with a thermodynamic solubility at 24 h in data set [6] of more than 1500 µM. Also, the logD at 1 h, 10000 µM in data set [1] was determined as 1.2. Further, the clearance in data set [7] was determined as 40 mL/min/kg. In data set [9], this compound registered an exposure (AUC) of 5.3 µM·h.

The values above are taken from ChEMBL document CHEMBL2157937, “Discovery and optimization of C-2 methyl imidazopyrrolopyridines as potent and orally bioavailable JAK1 inhibitors with selectivity over JAK2” (J Med Chem, 2012).
